Test results from ChEMBL document CHEMBL3792299, “Novel tricyclics (e.g., GSK945237) as potent inhibitors of bacterial type IIA topoisomerases” (Bioorg Med Chem Lett, 2016).
Converted amounts (≈) assume the structure as drawn. The source made the active and inactive calls. No cut-off for these calls is given here.

Key:
[1] = Inhibition of Haemophilus influenzae DNA gyrase-dependent DNA replication by scintillation proximity assay
Streptococcus pneumoniae [2] = experiment: Antibacterial activity against quinolone-resistant Streptococcus pneumoniae TPS3 after 18 to 24 hrs by broth microdilution method; format: functional
Haemophilus influenzae = experiment: Antibacterial activity against Haemophilus influenzae H128 after 18 to 24 hrs by broth microdilution method; format: functional
Staphylococcus aureus = experiment: Antibacterial activity against Staphylococcus aureus WCUH 29 after 18 to 24 hrs by broth microdilution method; format: functional
[3] = Intrinsic clearance in cynomolgus monkey liver microsomes assessed per gram of liver at 0.5 uM by LC/MS/MS analysis; format: ADME, Macaca fascicularis
Cynomolgus monkey [4] = experiment: AUC in cynomolgus monkey at 5 mg/kg, po administered as single dose by LC/MS/MS analysis; format: ADME, organism-based, Macaca fascicularis; details: in vivo
Rattus norvegicus [5] = experiment: Blood clearance in Sprague-Dawley rat at 3 mg/kg, iv administered as single dose by LC/MS/MS analysis relative to hepatic blood flow; format: ADME, organism-based, Liver; details: in vivo
[6] = Plasma protein binding in Sprague-Dawley rat at 0.5 to 5 ug/ml by equilibrium dialysis method; format: ADME, cell-free; details: read-out: PPB (converted)
Liver microsome [7] = experiment: Intrinsic clearance in Beagle dog liver microsomes assessed per gram of liver at 0.5 uM by LC/MS/MS analysis; format: ADME, Canis lupus familiaris
[8] = Terminal half life in Beagle dog at 3 mg/kg, iv administered as single dose by LC/MS/MS analysis; format: ADME, organism-based, Canis lupus familiaris; details: in vivo, read-out: beta t1/2 (converted)
[9] = Volume of distribution at steady state in cynomolgus monkey at 3 mg/kg, iv administered as single dose by LC/MS/MS analysis; format: ADME, organism-based, Macaca fascicularis; details: in vivo, read-out: Vdss
Liver microsome [10] = experiment: Intrinsic clearance in Sprague-Dawley rat liver microsomes assessed per gram of liver at 0.5 uM by LC/MS/MS analysis; format: ADME
Cynomolgus monkey [11] = experiment: Blood clearance in cynomolgus monkey at 3 mg/kg, iv administered as single dose by LC/MS/MS analysis relative to hepatic blood flow; format: ADME, organism-based, Macaca fascicularis, Liver; details: in vivo
Cynomolgus monkey [12] = experiment: Renal clearance in cynomolgus monkey at 3 mg/kg, iv administered as single dose by LC/MS/MS analysis relative to total clearance; format: ADME, organism-based, Macaca fascicularis, Kidney; details: in vivo
[13] = Cmax in Beagle dog at 5 mg/kg, po administered as single dose by LC/MS/MS analysis; format: ADME, organism-based, Canis lupus familiaris; set-up: dose 5 mg/kg, route oral; details: in vivo
[14] = Terminal half life in cynomolgus monkey at 3 mg/kg, iv administered as single dose by LC/MS/MS analysis; format: ADME, organism-based, Macaca fascicularis; details: in vivo, read-out: beta t1/2 (converted)
[15] = target: Voltage-gated inwardly rectifying potassium channel KCNH2 (Homo sapiens, UniProt Q12809); experiment: Inhibition of human ERG
Chain of Voltage-gated inwardly rectifying potassium channel KCNH2 (Q12809 whole entry): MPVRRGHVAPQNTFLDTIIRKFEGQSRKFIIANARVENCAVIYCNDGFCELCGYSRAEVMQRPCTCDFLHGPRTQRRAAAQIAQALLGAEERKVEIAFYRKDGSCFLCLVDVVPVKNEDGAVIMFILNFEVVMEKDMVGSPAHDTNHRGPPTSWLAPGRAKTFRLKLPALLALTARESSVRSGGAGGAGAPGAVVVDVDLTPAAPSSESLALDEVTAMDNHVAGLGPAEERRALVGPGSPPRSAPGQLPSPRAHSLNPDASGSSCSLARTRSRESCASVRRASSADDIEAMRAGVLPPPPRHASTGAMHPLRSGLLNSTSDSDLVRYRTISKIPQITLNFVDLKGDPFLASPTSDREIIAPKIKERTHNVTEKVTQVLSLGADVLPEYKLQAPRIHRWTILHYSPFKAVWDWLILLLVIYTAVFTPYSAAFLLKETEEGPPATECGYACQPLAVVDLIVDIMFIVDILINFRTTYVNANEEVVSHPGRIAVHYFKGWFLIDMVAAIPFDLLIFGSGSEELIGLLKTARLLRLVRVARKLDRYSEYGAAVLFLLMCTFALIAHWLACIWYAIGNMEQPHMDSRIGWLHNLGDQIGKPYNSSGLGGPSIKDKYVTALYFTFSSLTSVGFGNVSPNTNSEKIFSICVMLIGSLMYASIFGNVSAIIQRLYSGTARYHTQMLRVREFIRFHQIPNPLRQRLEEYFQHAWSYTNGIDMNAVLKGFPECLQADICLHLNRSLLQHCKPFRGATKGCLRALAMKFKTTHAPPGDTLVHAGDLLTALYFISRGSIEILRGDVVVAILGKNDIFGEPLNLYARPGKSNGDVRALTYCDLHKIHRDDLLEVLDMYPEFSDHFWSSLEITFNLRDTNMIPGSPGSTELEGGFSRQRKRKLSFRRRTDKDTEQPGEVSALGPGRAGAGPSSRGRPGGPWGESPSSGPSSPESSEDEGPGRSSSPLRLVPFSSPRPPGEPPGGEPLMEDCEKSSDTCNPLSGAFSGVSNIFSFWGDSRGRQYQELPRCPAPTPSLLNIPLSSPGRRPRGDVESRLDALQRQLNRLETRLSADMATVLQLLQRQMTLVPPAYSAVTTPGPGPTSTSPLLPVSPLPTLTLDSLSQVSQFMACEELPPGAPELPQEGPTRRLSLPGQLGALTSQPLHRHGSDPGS

[16] = Plasma protein binding in cynomolgus monkey at 0.5 to 5 ug/ml by equilibrium dialysis method; format: ADME, cell-free, Macaca fascicularis; details: read-out: PPB (converted)
Rattus norvegicus [17] = experiment: AUC in Sprague-Dawley rat at 5 mg/kg, po administered as single dose by LC/MS/MS analysis; format: ADME, organism-based; details: in vivo
Rattus norvegicus [18] = experiment: Oral bioavailability in Sprague-Dawley rat at 5 mg/kg administered as single dose by LC/MS/MS analysis; format: ADME, organism-based; details: in vivo
[19] = Cmax in Sprague-Dawley rat at 100 mg/kg, po bid by LC/MS/MS analysis; format: ADME, organism-based; set-up: dose 100 mg/kg, route oral; details: in vivo
[20] = Volume of distribution at steady state in Sprague-Dawley rat at 3 mg/kg, iv administered as single dose by LC/MS/MS analysis; format: ADME, organism-based; details: in vivo, read-out: Vdss
Canis familiaris [21] = experiment: Blood clearance in Beagle dog at 3 mg/kg, iv administered as single dose by LC/MS/MS analysis relative to hepatic blood flow; format: ADME, organism-based, Canis lupus familiaris, Liver; details: in vivo
[22] = Plasma protein binding in Beagle dog at 0.5 to 5 ug/ml by equilibrium dialysis method; format: ADME, cell-free, Canis lupus familiaris; details: read-out: PPB (converted)
Canis familiaris [23] = experiment: Renal clearance in Beagle dog at 3 mg/kg, iv administered as single dose by LC/MS/MS analysis relative to total clearance; format: ADME, organism-based, Canis lupus familiaris, Kidney; details: in vivo
[24] = Cmax in cynomolgus monkey at 5 mg/kg, po administered as single dose by LC/MS/MS analysis; format: ADME, organism-based, Macaca fascicularis; set-up: dose 5 mg/kg, route oral; details: in vivo
Rattus norvegicus [25] = experiment: AUC in Sprague-Dawley rat at 100 mg/kg, po bid by LC/MS/MS analysis; format: ADME, organism-based; details: in vivo
Streptococcus pneumoniae [26] = experiment: Antibacterial activity against quinolone-resistant Streptococcus pneumoniae TPS3 in rat respiratory tract infection model assessed as decrease in bacterial burden in lung at 50 mg/kg po bid administered through gavage at 1, 7, 24,31 hrs post infection measured after 48 hrs; format: functional, organism-based
[27] = Volume of distribution at steady state in Beagle dog at 3 mg/kg, iv administered as single dose by LC/MS/MS analysis; format: ADME, organism-based, Canis lupus familiaris; details: in vivo, read-out: Vdss
[28] = Cmax in Sprague-Dawley rat at 5 mg/kg, po administered as single dose by LC/MS/MS analysis; format: ADME, organism-based; set-up: dose 5 mg/kg, route oral; details: in vivo
Canis familiaris [29] = experiment: Oral bioavailability in Beagle dog at 5 mg/kg administered as single dose by LC/MS/MS analysis; format: ADME, organism-based, Canis lupus familiaris; details: in vivo
Streptococcus pneumoniae [30] = experiment: Antibacterial activity against quinolone-resistant Streptococcus pneumoniae TPS3 in rat respiratory tract infection model assessed as decrease in bacterial burden in lung at 100 mg/kg, po bid administered through gavage at 1, 7, 24,31 hrs post infection measured after 48 hrs; format: functional, organism-based
Canis familiaris [31] = experiment: AUC in Beagle dog at 5 mg/kg, po administered as single dose by LC/MS/MS analysis; format: ADME, organism-based, Canis lupus familiaris; details: in vivo
[32] = Terminal half life in Sprague-Dawley rat at 3 mg/kg, iv administered as single dose by LC/MS/MS analysis; format: ADME, organism-based; details: in vivo, read-out: beta t1/2 (converted)
Cynomolgus monkey [33] = experiment: Oral bioavailability in cynomolgus monkey at 5 mg/kg administered as single dose by LC/MS/MS analysis; format: ADME, organism-based, Macaca fascicularis; details: in vivo

Cc1cc(F)c2c3c1ccc(=O)n3C[C@H]2CN1CCC(NCc2cc3c(nn2)OCCO3)CC1
IC50 [1]: 0.099 µg/mL (≈ 0.213 µM)
MIC (Streptococcus pneumoniae [2]): 0.5 µg/mL (≈ 1.07 µM)
MIC (Haemophilus influenzae): 2 µg/mL (≈ 4.3 µM)
MIC (Staphylococcus aureus): 0.06 µg/mL (≈ 0.129 µM)

O=C1CC(NCc2cc3c(nn2)OCCO3)CCN1C[C@@H]1Cn2c(=O)ccc3ccc(F)c1c32 (stereo partly specified)
IC50 [1]: 0.166 µg/mL (≈ 0.357 µM)
MIC (Streptococcus pneumoniae [2]): 16 µg/mL (≈ 34.4 µM)
MIC (Haemophilus influenzae): > 16 µg/mL
MIC (Staphylococcus aureus): 16 µg/mL (≈ 34.4 µM)

O=c1ccc2cccc3c2n1C[C@H]3CN1CCC(NCc2cc3c(nn2)OCCO3)CC1
MIC (Streptococcus pneumoniae [2]): 1 µg/mL (≈ 2.31 µM)
MIC (Haemophilus influenzae): 2 µg/mL (≈ 4.61 µM)
MIC (Staphylococcus aureus): 0.5 µg/mL (≈ 1.15 µM)

O=c1ccc2ccc(F)c3c2n1C[C@H]3CN1CCCC(CNCc2cc3c(nn2)OCCO3)C1 (stereo partly specified)
IC50 [1]: 0.666 µg/mL (≈ 1.43 µM)
MIC (Streptococcus pneumoniae [2]): 4 µg/mL (≈ 8.59 µM)
MIC (Haemophilus influenzae): > 16 µg/mL
MIC (Staphylococcus aureus): 1 µg/mL (≈ 2.15 µM)

N#Cc1ccc2ccc(=O)n3c2c1[C@H](CN1CCC(NCc2cc4c(nn2)OCCO4)CC1)C3
IC50 [1]: 0.062 µg/mL (≈ 0.135 µM)
MIC (Streptococcus pneumoniae [2]): 0.5 µg/mL (≈ 1.09 µM)
MIC (Haemophilus influenzae): 2 µg/mL (≈ 4.36 µM)
MIC (Staphylococcus aureus): 0.25 µg/mL (≈ 0.545 µM)

O=c1ccc2ccc(F)c3c2n1C[C@@H]3CN1CCC(NCc2cc3c(nn2)OCCO3)CC1
IC50 [1]: 0.121 µg/mL (≈ 0.268 µM)
MIC (Streptococcus pneumoniae [2]): 8 µg/mL (≈ 17.7 µM)
MIC (Haemophilus influenzae): > 16 µg/mL
MIC (Staphylococcus aureus): 2 µg/mL (≈ 4.43 µM)

Cc1ccc2ccc(=O)n3c2c1[C@H](CN1CCC(NCc2cc4c(nn2)OCCO4)CC1)C3
IC50 [1]: 0.076 µg/mL (≈ 0.17 µM)
MIC (Streptococcus pneumoniae [2]): 1 µg/mL (≈ 2.23 µM)
MIC (Haemophilus influenzae): 4 µg/mL (≈ 8.94 µM)
MIC (Staphylococcus aureus): 0.25 µg/mL (≈ 0.559 µM)

COc1ccc2ccc(=O)n3c2c1[C@H](CN1CCC(NCc2cc4c(nn2)OCCO4)CC1)C3
IC50 [1]: 0.276 µg/mL (≈ 0.595 µM)
MIC (Streptococcus pneumoniae [2]): 8 µg/mL (≈ 17.3 µM)
MIC (Haemophilus influenzae): 16 µg/mL (≈ 34.5 µM)
MIC (Staphylococcus aureus): 2 µg/mL (≈ 4.31 µM)

O=c1cnc2ccc(F)c3c2n1C[C@H]3CN1CCC(NCc2cc3c(nn2)OCCO3)CC1
IC50 [1]: 0.036 µg/mL (≈ 0.0796 µM)
MIC (Haemophilus influenzae): 0.5 µg/mL (≈ 1.1 µM)
MIC (Staphylococcus aureus): 0.06 µg/mL (≈ 0.133 µM)

O=c1ccc2ccc(F)c3c2n1C[C@H]3CN1CCC(NCc2cc3c(nn2)OCCO3)CC1 [GSK-945237]
CLint [3]: 1.5 mL/min/g
AUC (Cynomolgus monkey [4]): 1190 ng·h/mL
CL (Rattus norvegicus [5]): 100%
fraction unbound [6]: 0.367
CLint (Liver microsome [7]): < 0.6 mL/min/g
half-life [8]: 8.8 h
Vd [9]: 8.2 L/kg
CLint (Liver microsome [10]): 0.7 mL/min/g
CL (Cynomolgus monkey [11]): 40%
CL (Cynomolgus monkey [12]): 45%
IC50 [1]: 0.034 µg/mL (≈ 0.0753 µM)
Cmax [13]: 1070 ng/mL
half-life [14]: 7.6 h
IC50 [15]: 238 µM
fraction unbound [16]: 0.576
MIC (Streptococcus pneumoniae [2]): 0.25 µg/mL (≈ 0.554 µM)
AUC (Rattus norvegicus [17]): 290 ng·h/mL
F (Rattus norvegicus [18]): 22%
Cmax [19]: 3000 ng/mL
Vd [20]: 7.2 L/kg
CL (Canis familiaris [21]): 40%
fraction unbound [22]: 0.53
CL (Canis familiaris [23]): 74%
MIC (Haemophilus influenzae): 1 µg/mL (≈ 2.21 µM)
Cmax [24]: 210 ng/mL
AUC (Rattus norvegicus [25]): 30 ug.hr/ml/day
Activity (Streptococcus pneumoniae [26]): Active
Vd [27]: 6.1 L/kg
Cmax [28]: 40 ng/mL
F (Canis familiaris [29]): 100%
Activity (Streptococcus pneumoniae [30]): Active
AUC (Canis familiaris [31]): 6050 ng·h/mL
half-life [32]: 1.9 h
F (Cynomolgus monkey [33]): 34%
MIC (Staphylococcus aureus): 0.06 µg/mL (≈ 0.133 µM)

COc1c(N2C[C@@H]3CCCN[C@@H]3C2)c(F)cc2c(=O)c(C(=O)O)cn(C3CC3)c12 [MOXIFLOXACIN]
MIC (Streptococcus pneumoniae [2]): 4 µg/mL (≈ 9.96 µM)
Activity (Streptococcus pneumoniae [30]): inactive
